pIC50: −log10 of the molar value. Like-named read-outs stand apart in the source and are kept apart here.
Key:
[1] = Mice colon pharmacokinetic studies; format: in vivo; settings: mouse, female Balb/c mice, oral gavage, 10 mg/kg; for half-life: read-out: Plasma T1/2 (converted)
Description: Pharmacokinetic studies were investigated using female Balb/c mice to determine plasma and colon exposure of tested compounds. Compounds were administrated via oral gavage in a formulation of 0.5% Methocel (A4M) + 0.1% Tween80 in water to Balb/c mic. Animals were anesthetized at the designated time points, plasma, colon tissue and colonic contents samples were collected. Tissue samples were homogenized using MeOH : PBS(1:1). All samples were analyzed by LC-MS/MS.

IFNa pSTAT1 [2] = assay: Phosphorylation of STAT1 inhibition in CCF-STTG1 cells by Jess; format: cell-based; settings: Homo sapiens, 0.5 h; CCF-STTG1 astrocyte cells, IFNα induction 30 mins, Jess western; read-out: Jess_CCF-STTG1 IC50 (IFNa pSTAT1)
Description: Seeding HMC3 cells into 12-well plate and incubate overnight. Pre-stimulation with recombinant human IFNα (Sino biological, H08Y), treat cells with compound with different concentration for 1hr. After compound treatment, stimulate HMC3 cells with 50ng/mL hINFα for another 1 hour (for CCF-STTG1 cells IFNα induction time is 30 mins). And then wash cells with DPBS once gently and lyse cells with pre-cooled RIPA buffer (Sigma, R0278-500ML) for 30min on ice to harvest cells. Centrifuge cell lysate for 20 mins at 12000rpm with freezer centrifuge (Thermo Scientific, Heraeus Fresco 21) to extract protein. Prepare samples with Jess Simple Wes kit (SM-WO04) and then run western blot on Jess simple western system (Protein simple, JS-4631). Collect data and analyzed with GraphPad Prism.

TYK2 pathway = assay: IFN-γ release in NK92 cells stimulated by IL-12 (ELISA); format: cell-based; settings: IL-12 2.5ng/mL stimulation 15hrs, IFN-γ in supernatant by ELISA
Description: IFN-γ Release in NK92 Cells Stimulated by IL-12
Purpose: To evaluate the inhibition activity of TYK2 inhibitors in NK92 cells on TYK2 pathway through ELISA method.
Procedure: 1) Seeding NK92 cells into 96-well plate, cell density is 1.5E5 cells/well, 100uL/well; 2)Add prepared test articles into indicated wells, 50uL/well, and continue incubate for 1h, at 37°C; 3) After compound treatment, add 50uL/well IL-12 into indicated wells, final concentration of IL-12 is 2.5ng/mL; 4)Incubate cytokine stimulated cells at 37°C for another 15hrs in CO2 incubator; 5) After cytokine stimulation, transfer culture supernatant into a new plate and centrifuge for 5min at 350x g, and detect IFN-γ concentration in the supernatant with ELISA kit; 6) Data analysis with GrapdPad Prism6.0 software. Table 5. IC50 Values of Exemplary Compounds on TYK2 Pathway

[3] = Pharmacokinetic study in rats; format: in vivo; settings: rat, plasma, Sprague-Dawley rats, solution
Description: Pharmacokinetic profiles of test articles were evaluated in fasted mouse, Sprague-Dawley rats and Beagle dogs. After dosing, blood samples were collected at each time point. For IV injection group, time points were set at 5, 15, 30 min, and then 1, 2, 4, 8 and 24 hours after dosing. For oral gavage group,#time points were set at 15, 30 min, and then 1, 2, 4, 8, and 24 hours. Blood was collected into appropriately labeled tubes containing K2EDTA as the anticoagulant. Plasma was obtained within 1 hours of blood collection by centrifugation at 8000×g and 4 °C for 6 minutes, and then stored at -20 °C until analyzed by LC/MS/MS for quantification. PK parameter values, including, but not necessarily limited to, the maximum plasma concentrations (Cmax), the time to reach the maximum concentrations (Tmax), and the area under the plasma concentration vs. time curve (AUC) from time zero to 24-hour (AUC0-24h) were determined using WinNonlin program. Table 17. […]

IFNa pSTAT1 [4] = assay: Phosphorylation of STAT1 inhibition in HMC3 cells with HTRF assay; format: cell-based; settings: Homo sapiens, HMC3 microglia cells, 50ng/mL hINFα 1 hour, read-out: HTRF_HMC3 IC 50 (IFNa pSTAT1)
Description: Seeding HMC3 cells into 96-well plate and incubate overnight. Pre-stimulation with recombinant human IFNα (Sino biological, H08Y), treat cells with compound with different concentration for 1hr. After compound treatment, stimulate cells with 50ng/mL hINFα for another 1 hour (for CCF-STTG1 cells IFNα induction time is 30 mins). After compound treatment and cytokine stimulation, dump old medium and lyse cells with supplemented lysis buffer provided by the HTRF kit (Revvity, 63ADK026PEG) for 30 min at room temperature under shaking. After homogenization by pipetting up and down, transfer 16 µL of cell lysate from the 96-well cell-culture plate to a small volume white 384-well plate, and then add 4 µL of pre-mixed two ready-to-use antibody working solution into each wells. Cover the plate with a plate sealer and incubate it overnight at room temperature. Read the fluorescence emission at two different wavelengths (665nm and 620nm) on microplate reader (Molecular Device, SpectraMax i3X). Collect data and analyzed with GraphPad Prism.

[5] = Brain pharmacokinetic studies in dogs; format: in vivo, Beagle dogs; settings: for AUC / Kp: Beagle dogs, iv, 2 mg/kg, solution; for AUC: AUC0-4h; for Kp: read-out: Brain AUC/Systemic AUC; for brain exposure in Dogs: result in words
Description: Pharmacokinetic profiles of test articles were evaluated in Beagle dogs. Different kinds of formulations were designed to ensure test articles fully dissolved and wouldn't precipitate in 1:10 SGF or FaSSIF dilution. The animal was restrained manually at the designated time points, approximately 500 µL of blood sample was collected via cephalic vein into K2EDTA tubes. The blood samples were maintained in wet ice first and centrifuged to obtain plasma (2000g, 4°C, 5 min) within 15 minutes post sampling. The animal was euthanized with pure […] inhalation. Shave the hair on the back of head and neck, and clean the skin of the area with iodine and 75% ethanol. Inject about 4-5 L saline from carotid artery for perfusion. Brain was collected after the perfusion fluid (saline) was gradually clarified. Dry the tissue on filtrate paper on ice, and then weigh the brain tissue and store at -70°C for later analysis. […] Table 15. Systemic Pharmacokinetic Parameters in Beagle Dogs

[6] = plasma, read-out: Plasma AUC0-24
[7] = colon tissue, read-out: Colon AUC0-24
[8] = colonic contents, read-out: Colon content AUC0-24
[9] = dog, systemic (plasma), read-out: AUC

For `[2H]C([2H])([2H])NC(=O)c1cnc(NC(=O)C2CC2)cc1Nc1cnn2ccc([C@H](O)C(F)(F)F)c(OC)c12` [Example 7A, (S)-6-(cyclopropanecarboxamido)-4-((4-methoxy-5-(2,2,2-trifluoro-1-hydroxyethyl)pyrazolo[1,5-a]pyridin-3-yl)amino)-N-(methyl-d3)nicotinamide], the Cmax ([1]; plasma) was 426 ng/mL, the Tmax ([1]; plasma) was 0.25 h and the AUC(0-t) [1, 6] was 0.599 µg·h/mL. The half-life ([1]; plasma) was 1.75 h, the AUC(0-t) [1, 7] was 45.8 µg·h/mL and the AUC(0-t) [1, 8] was 1430 µg·h/mL. The pIC50 (IFNa pSTAT1 [2]) was 8.17, the pIC50 (TYK2 pathway) was 8.04 and the AUC ([3]; intravenous, 1 mg/kg) was 0.317 µg·h/mL. The Vd ([3]; intravenous, 1 mg/kg) was 3.3 L/kg, the clearance ([3]; intravenous, 1 mg/kg) was 53.2 mL/min/kg and the half-life ([3]; intravenous, 1 mg/kg) was 0.84 h. For the same compound, the AUC ([3]; oral, 10 mg/kg) was 0.258 µg·h/mL, the Cmax ([3]; oral, 10 mg/kg) was 31.3 ng/mL and the bioavailability ([3]; oral, 10 mg/kg) was 8.1%. The half-life ([3]; oral, 10 mg/kg) was 4.91 h.

For `[2H]C([2H])([2H])NC(=O)c1cnc(NC(=O)C2CC2)cc1Nc1nn(C)c2ccc([C@H](O)C(F)(F)F)c(OC)c12` [Example 49A, (S)-6-(cyclopropanecarboxamido)-4-((4-methoxy-1-methyl-5-(2,2,2-trifluoro-1-hydroxyethyl)-1H-indazol-3-yl)amino)-N-(methyl-d3)nicotinamide], the Cmax ([1]; plasma) was 1340 ng/mL, the Tmax ([1]; plasma) was 0.25 h and the AUC(0-t) [1, 6] was 1.22 µg·h/mL. The half-life ([1]; plasma) was 1.03 h, the AUC(0-t) [1, 7] was 21.3 µg·h/mL and the AUC(0-t) [1, 8] was 1590 µg·h/mL. The pIC50 (IFNa pSTAT1 [4]) was over 10.21, the AUC ([3]; intravenous, 2 mg/kg) was 0.904 µg·h/mL and the Vd ([3]; intravenous, 2 mg/kg) was 2.2 L/kg. For the same compound, the clearance ([3]; intravenous, 2 mg/kg) was 38.2 mL/min/kg, the half-life ([3]; intravenous, 2 mg/kg) was 1.04 h and the AUC ([3]; oral, 10 mg/kg) was 0.418 µg·h/mL. The Cmax ([3]; oral, 10 mg/kg) was 74.2 ng/mL, the bioavailability ([3]; oral, 10 mg/kg) was 9.25% and the half-life ([3]; oral, 10 mg/kg) was 3.14 h.

In the case of `COC(=O)c1cnc(NC(=O)C2CC2)cc1Nc1nn(C)c2ccc([C@H](OC)C(F)(F)F)c(OC)c12` [Example 45B, Methyl (S)-6-(cyclopropanecarboxamido)-4-((4-methoxy-1-methyl-5-(2,2,2-trifluoro-1-methoxyethyl)-1H-indazol-3-yl)amino)nicotinate], the “AUC” value ([5]; brain) was 1963 ng·h/g, the Kp ([5]; dog, brain) was 1.12 and the AUC [5, 9] was 1.76 µg·h/mL. The “brain exposure in Dogs” value [5] was “good brain exposure” and the pIC50 (IFNa pSTAT1 [2]) was 8.46.

With `[2H]C([2H])([2H])NC(=O)c1nnc(NC(=O)C2CC2)cc1Nc1cnn2ccc([C@H](O)C(F)(F)F)c(OC)c12` [Example 30, (S)-6-(cyclopropanecarboxamido)-4-((4-methoxy-5-(2,2,2-trifluoro-1-hydroxyethyl)pyrazolo[1,5-a]pyridin-3-yl)amino)-N-(methyl-d3)pyridazine-3-carboxamide] the pIC50 (TYK2 pathway) was 8.17.

Work on `COC(=O)c1cnc(NC(=O)[C@@H]2C[C@@H]2F)cc1Nc1nn(C)c2ccc(C(O)C(F)(F)F)c(OC)c12` (single isomer, unassigned) [Example 122A, Methyl 6-((1S,2S)-2-fluorocyclopropane-1-carboxamido)-4-((4-methoxy-1-methyl-5-((S*)-2,2,2-trifluoro-1-hydroxyethyl)-1H-indazol-3-yl)amino) nicotinate] yielded a pIC50 (IFNa pSTAT1 [4]) of over 10.21.

Work on `COC(=O)c1cnc(NC(=O)C2CC2)cc1Nc1nn(C)c2ccc([C@H](O)C(F)(F)F)c(OC)c12` [Example 48A, Methyl (S)-6-(cyclopropanecarboxamido)-4-((4-methoxy-1-methyl-5-(2,2,2-trifluoro-1-hydroxyethyl)-1H-indazol-3-yl)amino)nicotinate] yielded a pIC50 (IFNa pSTAT1 [4]) of over 10.21 and a pIC50 (IFNa pSTAT1 [2]) of 9.13.

For `[2H]C([2H])([2H])NC(=O)c1cnc(NC(=O)C2CC2)cc1Nc1cnn2ccc([C@H](OC)C(F)(F)F)c(OC)c12` [Example 27, (S)-6-(cyclopropanecarboxamido)-4-((4-methoxy-5-(2,2,2-trifluoro-1-methoxyethyl)pyrazolo[1,5-a]pyridin-3-yl)amino)-N-(methyl-d3)nicotinamide], the pIC50 (TYK2 pathway) was 8.22.

In the case of `[2H]C([2H])([2H])O[C@@H](c1ccc2c(c(Nc3cc(NC(=O)C4CC4)ncc3C(=O)OC)nn2C)c1OC)C(F)(F)F` [Example 50B, Methyl (S)-6-(cyclopropanecarboxamido)-4-((4-methoxy-1-methyl-5-(2,2,2-trifluoro-1-(methoxy-d3)ethyl)-1H-indazol-3-yl)amino)nicotinate], the “AUC” value ([5]; brain) was 1856 ng·h/g, the Kp ([5]; dog, brain) was 1.36 and the AUC [5, 9] was 1.37 µg·h/mL. For the same compound, the “brain exposure in Dogs” value [5] was “good brain exposure” and the pIC50 (IFNa pSTAT1 [2]) was 8.43.

With `[2H]C([2H])([2H])NC(=O)c1cnc(Nc2ccn(C)n2)cc1Nc1cnn2ccc([C@H](O)C(F)(F)F)c(OC)c12` [Example 21, (S)-4-((4-methoxy-5-(2,2,2-trifluoro-1-hydroxyethyl)pyrazolo[1,5-a]pyridin-3-yl)amino)-N-(methyl-d3)-6-((1-methyl-1H-pyrazol-3-yl)amino)nicotinamide] the pIC50 (TYK2 pathway) was 7.84.

For `[2H]C([2H])([2H])NC(=O)c1cnc(NC(=O)C2CC2)cc1Nc1nn(C)c2ccc([C@H](OC([2H])([2H])[2H])C(F)(F)F)c(OC)c12` [Example 55A, (S)-6-(cyclopropanecarboxamido)-4-((4-methoxy-1-methyl-5-(2,2,2-trifluoro-1-(methoxy-d3)ethyl)-1H-indazol-3-yl)amino)-N-(methyl-d3)nicotinamide], the pIC50 (IFNa pSTAT1 [4]) was 9.72, the AUC ([3]; intravenous, 3 mg/kg) was 3.65 µg·h/mL and the Vd ([3]; intravenous, 3 mg/kg) was 2.05 L/kg. The clearance ([3]; intravenous, 3 mg/kg) was 13.6 mL/min/kg, the half-life ([3]; intravenous, 3 mg/kg) was 2.56 h and the AUC ([3]; oral, 5 mg/kg) was 2.95 µg·h/mL. The Cmax ([3]; oral, 5 mg/kg) was 409 ng/mL, the bioavailability ([3]; oral, 5 mg/kg) was 48.6% and the half-life ([3]; oral, 5 mg/kg) was 2.67 h.

In the case of `[2H]C([2H])([2H])NC(=O)c1cnc(Nc2cc(C)nc(C)n2)cc1Nc1cnn2ccc([C@H](O)C(F)(F)F)c(OC)c12` [Example 25, (S)-6-((2,6-Dimethylpyrimidin-4-yl)amino)-4-((4-methoxy-5-(2,2,2-trifluoro-1-hydroxyethyl)pyrazolo[1,5-a]pyridin-3-yl)amino)-N-(methyl-d3)nicotinamide], the pIC50 (TYK2 pathway) was 8.14.
